Results: patent US9345682B2, “Inhibition of STAT3 signal transduction for human cancer therapy” (University of South Florida, priority 1999, dated 2016)

How the values were obtained:
[1] = test system: MDA-MB-468 cells; assay: Cell growth of MDA-MB-468 breast carcinoma cells; type: cell-based, human
Procedure: (§1) FIG. 6: Src and JAK Inhibitors Block Growth and STAT3 Activation in Breast Carcinoma Cells. MDA-MD-468 cells are treated with inhibitors of EGF receptor (PD158780), Src (PD180970), or JAKs (AG490), and effects on cell growth (Panel A) and STAT3 DNA-binding activity (Panel B) are determined.
(§2) The involvement of these, and other, tyrosine kinases in STAT3 activation is tested using specific inhibitors of JAK family kinases, and the EGF receptor and Src family kinases.

[2] = test system: STAT3; assay: EMSA of constitutive STAT3 DNA-binding activity in MDA-MB-468 breast carcinoma cells; type: cell-based, human; details: MDA-MB-468 cells; dose-dependent
Procedure: as §1
STAT DNA-binding activity in human breast cancer cell lines is examined by electrophoretic mobility shift assays (EMSA) (Garcia et al., 1997, Cell Growth Diff. 8:1267-1276). In these experiments, EMSAs are performed using the ^32P-labeled sis-inducible element (SIE) as a probe to detect STAT DNA-binding activity in nuclear extracts of cells. This synthetic DNA oligonucleotide probe is a high-affinity mutant of the c-fos SIE, called hSIE, that binds both STAT1 and STAT3 (Yu, et al., 1995, Science 269:81-83). […] This activation is constitutive and occurs in the absence of exogenous EGF stimulation. By contrast, STAT3 activation is not detected in any of the three cell lines derived from normal breast tissue.
as §2

[3] = molecular target: T1, SH2 Domain of STAT3 (Homo sapiens, UniProt P40763); assay: Phage display panning, 7-mer peptide library, on the SH2 domain of STAT3; type: binding
T1 construct: the SH2 domain of STAT3 is isolated as a target for screening 7-mer peptide phage display libraries; GST; made in house; host or cells: bacteria (E. coli)
T1 sequence (P40763 580-670 limits assumed): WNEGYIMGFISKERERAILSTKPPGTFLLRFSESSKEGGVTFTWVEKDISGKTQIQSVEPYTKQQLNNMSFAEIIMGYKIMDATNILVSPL
Description: Phage display peptide libraries are used because of two powerful features. First, phage libraries generate an enormous diversity of peptides that can be subjected to affinity selection by panning. […] These combinatorial libraries are based on random short peptide sequences fused to a coat protein of bacteriophage, herein pIII of the filamentous coliphage MI3. Panning of the peptide library using an immobilized target, herein STAT3 fusion proteins bound onto beads, is used to select for peptide sequences that bind to STAT3. […] Peptide sequences that occur at elevated frequencies are good candidates for ST4T3-specific binding peptides. […] These cyclic peptides have the advantage of reducing entropic freedom, thereby potentially increasing binding specificity and affinity relative to linear peptides. Another variation on this approach is to combine “affinity maturation” with the phage display peptide library [Scott & Smith, 1990, Science, 249:386-390].
For panning phage with the STAT3 fusion protein, 50 ul of glutathione-Sepharose beads bound to purified GST-Stat3 fusion protein are washed with phosphate buffered saline (PBS). The beads are then incubated with 10 ul of phage suspension (1.4×10^11 virions) in 200 ul final volume of PBS for 30 min at room temperature with occasional mixing. The beads are gently pelleted in a microcentrifuge, and washed 10 times with 1 ml of PBS to remove unbound phage. Background of non-specifically bound phage is reduced by a variety of methods, including pre-blocking the beads with bovine serum albumin, pre-clearing the phage library with GST-glutathione-Sepharose beads, and washing the beads with increasing salt concentrations. Bound phage virions are eluted from the beads by incubation with a molar excess of glutathione for 30 min at room temperature. A small aliquot of the phage eluate is titered and the rest is amplified on the E. coli ER2537 host strain. Following amplification, the phage are purified by polyethylene glycol (PEG) precipitation and then the titer is determined again. […]

[4] = test system: STAT3; assay: STAT3-specific luciferase reporter (pLucTKS3) induced by v-Src in NIH 3T3 fibroblasts; type: cell-based, mouse; details: for constitutive induction of the STAT3-dependent luciferase reporter: NIH 3T3/v-Src/TKS3 cells stably expressing reporter, 6 hours; for STAT3-specific luciferase reporter induction by v-Src: transiently transfected NIH 3T3 cells, inhibitor for 6 h
Procedure: NIH 3T3, NIH 3T3/v-Src and NIH 3T3/v-Ras fibroblasts are grown in Dulbecco's modified Eagle's medium (DMEM) containing 5% iron-supplemented bovine calf serum (BCS). Transient transfections are carried out by the standard calcium phosphate method as previously described (Turkson, et al., 1998, Mol. Cell. Biol. 18:2545-2552). NIH 3T3 fibroblasts are seeded at 5×10^5 cells/100-mm plate in DMEM plus 5% BCS at 18 to 24 hours prior to transfection. Total DNA for transfections is typically 20 μg per plate, including 4 μg of luciferase reporter construct (pLucTKS3), 0.2 μg of β-galactosidase (β-Gal) internal control vector, and the amounts of expression vector indicated in figure legends. Transfection is terminated 15 hours later by aspirating the medium, washing the cells with phosphate-buffered saline (PBS), and adding fresh DMEM. For generation of NIH 3T3/v-Src/TKS3 cell lines stably expressing the STAT3 reporter, NIH 3T3/v-Src cells are transfected using Fugene 6 (Boehringer Mannheim) according to the supplier's protocol. The transfection mixture contains 5.5 μg total DNA per 10 cm plate, including […] of the STAT3 reporter, pLucTKS3, and 0.5 μg of pcDNA3 that carries the neomycin resistance gene. Individual G418-resistant clones are picked and characterized with regard to STAT3-dependent luciferase activities.
(§3) In the case of stable NIH 3T3/v-Src/TKS3 clones, cells are treated with inhibitors or DMSO for 6 hours prior to preparing cytosolic extracts. For transient expression assays, cytosolic extracts are prepared from cells at 48 hours posttransfection as previously described (Turkson, et al., 1998, Mol. Cell. Biol. 18:2545-2552). Briefly, after two washes with PBS and equilibration for 5 min with 0.5 ml of PBS-0.5 mM EDTA, cells are scraped off the dishes and the cell pellet is obtained by centrifugation (4,500×g, 2 min, 4° C.). Cells are resuspended in 0.4 ml of low-salt HEPES buffer (10 mM HEPES [pH 7.8], 10 mM KCl, 0.1 mM EGTA, 0.1 mM EDTA, 1 mM phenylmethylsulfonyl fluoride, and 1 mM dithiothreitol) for 15 min, lysed by the addition of 20 μl of 10% Nonidet P-40 (NP-40), and centrifuged (10,000×g, 30 s, 4° C.) to obtain the cytosolic supernatant, which is used for luciferase assays (Promega) measured with a luminometer and for β-Gal activity detection by colorimetric assay at A570. As an internal control for transient transfection efficiency, results are normalized to β-Gal activity. For EMSA, nuclear extracts are prepared from transiently-transfected NIH 3T3 cells and volumes containing equal amounts of total protein are incubated with ^32P-labeled M67SIE oligonucleotide probe, as previously reported (Garcia, et al., 1997, Cell Growth Differ. 8:1267-1276, Yu, et al., 1995, Science 269:81-83). […]

[5] = test system: p38, JNK1/2, ERK1/2; assay: Western blot of phosphorylated (activated) MAPKs in Src-transformed fibroblasts; type: cell-based, mouse
Procedure: (§4) Whole-cell lysates are prepared in boiling sodium dodecyl sulfate (SDS) sample-loading buffer in order to extract total proteins from the cytoplasm and nucleus as well as preserve the in vivo phosphorylation […]. Equivalent amounts of total cellular protein are electrophoresed on an SDS-10% polyacrylamide gel and transferred to nitrocellulose membranes. Probing of nitrocellulose membranes with primary antibodies and detection of horseradish peroxidase-conjugated secondary antibodies by enhanced chemiluminescence (Amersham) are performed as previously described (Garcia, et al., 1997, Cell Growth Differ. 8:1267-1276, Turkson, et al., 1998, Mol. Cell. Biol. 18:2545-2552, Yu, et al., 1995, Science 269:81-83). Probes used are rabbit polyclonal antibodies against […] amino acid residues (626-640) of STAT3 (Santa Cruz Biotechnology), phosphoserine-727 of STAT3 (25), active (phospho-) JNK, p38^mapk or ERKs (New England Biolabs), or total JNK, p38^mapk or ERKs (Santa Cruz Biotechnology).

[6] = test system: NIH 3T3/v-Ras fibroblasts; assay: Soft-agar colony formation of NIH 3T3/v-Ras fibroblasts; type: cell-based, mouse; details: treated once weekly
Procedure: (§5) Colony formation assays are carried out in 6-well dishes. Each well contains 1.5 ml of 1% agarose in DMEM as the bottom layer. The top layer in each well consists of 1.5 ml of 0.5% agarose in DMEM containing 4,000 or 6,000 of NIH 3T3/v-Src or NIH 3T3/v-Ras fibroblasts, respectively. Treatment with inhibitors is initiated one day after seeding cells by adding 75-100 μl of medium with or without inhibitors and repeated once a week until formation of large colonies is evident. For quantitation, colonies are stained by adding 20 μl of 1 mg/ml iodonitrotetrazoliurn violet to each well and incubating at 37° C. overnight. Stained colonies are counted the next day.

[7] = test system: STAT3; assay: EMSA (M67SIE probe) of STAT3 DNA-binding activity in NIH 3T3 cells expressing v-Src; type: cell-based, mouse; details: v-Src-expressing NIH 3T3 cells, 6 hours
Procedure: as §3, with “activity.” for “activity. For EMSA, nuclear extracts are prepared from transiently-transfected NIH 3T3 cells and volumes containing equal amounts of total protein are incubated with ^32P-labeled M67SIE oligonucleotide probe, as previously reported (Garcia, et al., 1997, Cell Growth Differ. 8:1267-1276, Yu, et al., 1995, Science 269:81-83).”

[8] = test system: STAT3; assay: Western blot of STAT3 serine 727 phosphorylation in Src-transformed NIH 3T3 fibroblasts; type: cell-based, mouse; details: 6 hours
Procedure: as §4

[9] = test system: NIH 3T3/v-Src fibroblasts; assay: Soft-agar colony formation of NIH 3T3/v-Src fibroblasts; type: cell-based, mouse; details: treated once weekly
Procedure: as §5

With `Cc1cc(Nc2ncc3cc(-c4c(Cl)cccc4Cl)c(=O)n(C)c3n2)ccc1F` [PD180970] the cell growth [1] was “inhibition of cell growth” and the “constitutive STAT3 activation (STAT3 DNA-binding activity)” value [2] was “effectively blocked”.
For IQSPHFF (listed as Homo sapiens), the “Frequency (out of 100 clones)” value [3] was 6%.
For `CNc1cc2c(Nc3cccc(Br)c3)ncnc2cn1` [PD158780], the cell growth [1] was “not by the EGF receptor inhibitor” and the “constitutive STAT3 activation (STAT3 DNA-binding activity)” value [2] was “does not block”.
In the case of `COc1cccc(-c2cc(=O)c3ccccc3o2)c1N` [PD98059], the “constitutive induction of the STAT3-dependent luciferase reporter” value [4] is reported as “partially”, the “STAT3-specific luciferase reporter induction by v-Src” value [4] is reported as “significantly suppresses” and the “basal ERKs activity” value ([5]; Src-transformed fibroblasts) is reported as “complete block”. For the same compound, the “colony formation of Ras-transformed fibroblasts in soft agar” value [6] was “lack of significant effect”, the “STAT3 DNA-binding activity induced by v-Src” value [7] was “no effect” and the “STAT3 serine phosphorylation (phosphoserine-727)” value [8] was “blocks”. For the same compound, the “colony formation of Src-transformed cells in soft agar” value [9] was “lack of significant effect”.
ASTLPKA (listed as Homo sapiens) was tested, and the “Frequency (out of 100 clones)” value [3] was 7%.
In the case of HAIYPRN (listed as Homo sapiens), the “Frequency (out of 100 clones)” value [3] is reported as 16%.
For `Oc1ccc(-c2nc(-c3ccncc3)c(-c3ccc(F)cc3)[nH]2)cc1` [SB202190], the “constitutive induction of the STAT3-dependent luciferase reporter” value [4] was “completely”, the “STAT3-specific luciferase reporter induction by v-Src” value [4] was “significant inhibition” and the “phosphorylation of MAPK members, including p38” value ([5]; Src-transformed cells) was “does not significantly alter”. For the same compound, the “colony formation of Ras-transformed fibroblasts in soft agar” value [6] was “no significant effects”, the “STAT3 DNA-binding activity induced by v-Src” value [7] was “no effect” and the “STAT3 serine phosphorylation (phosphoserine-727)” value [8] was “blocks”. The “colony formation of Src-transformed cells in soft agar” value [9] was “completely blocks”.
